Assay results reported in patent US20080287377A1, “Composition Based on Triethyl Citrate for the Prevention of Enzymatic Hydrolysis of Triglycerides” (priority 2005, published 2008).
Counter-ions that a name gives are not always drawn.

Biological target: T1, porcine lipase (Sus scrofa, UniProt P00591)
T1 sequence (P00591 1-450): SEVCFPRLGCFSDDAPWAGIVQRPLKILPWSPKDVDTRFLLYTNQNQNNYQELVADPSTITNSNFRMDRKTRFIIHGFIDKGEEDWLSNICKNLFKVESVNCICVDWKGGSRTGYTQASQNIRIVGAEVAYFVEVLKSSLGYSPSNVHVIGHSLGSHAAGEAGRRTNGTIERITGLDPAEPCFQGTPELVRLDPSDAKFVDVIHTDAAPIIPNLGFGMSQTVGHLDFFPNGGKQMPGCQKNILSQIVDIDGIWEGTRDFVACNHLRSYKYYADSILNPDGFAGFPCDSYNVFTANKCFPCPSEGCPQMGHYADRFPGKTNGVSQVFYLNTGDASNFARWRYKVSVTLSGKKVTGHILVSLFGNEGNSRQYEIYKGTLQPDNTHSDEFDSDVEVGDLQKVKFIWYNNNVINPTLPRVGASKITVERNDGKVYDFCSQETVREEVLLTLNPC
Assay: Inhibition of the lyses of triglycerides (olive oil) by porcine lipase, colorimetric test of released fatty acids
Assay type: biochemical
Conditions: for Absorbance Mean: 37° C., read at 546 nm
Method: The inhibition of the lyses of triglycerides in the presence of porcine lipase was evaluated by analysing the released fatty acids using a colorimetric test.
The test consists in two distinct phases, one enzymatic reaction test which enables the lyses of triglycerides to leave the olive oil in the presence of porcine lipase and, successively, a colorimetric essay to determine the released fatty acids formed.
The porcine lipase, in the presence of the substrata (olive oil) and in opportune incubation conditions, catalyzes the following reaction:
Triglycerides+H2O→Diglycerides+Fatty acids
The dose of fatty acids allows indirect evaluation of the enzymatic activity and the lyses of triglycerides.
To evacuate the inhibition activity of the substance being analysed, three different concentrations of the substance under examination (5%, 1% and 0.5% in water) were tested at two different times (15 and 30 minutes).
In order to allow complete solubility, the 5% concentration was left at room temperature for 72 hours.
The porcine lipase was dissolved in deionised water at 4° C. just before use at the concentrations of 2000 U/ml. As a source of triglycerides olive oil was used. The buffer used for the reaction is Tris HCl 200 mM, pH=7.7 at 37° C. The test was conducted in the presence and in the absence of substance to be tested at different concentrations.
The following reagents are incubated at 37° C.: deionised water (150 μL), buffer (100 μL), olive oil (300 μL).
In the case of the sample (TEC 5%, 1% and 0.5%), the water was substituted with 150 μL of the solution to be tested.
Subsequent, the enzymatic solution (200 μL) was added and the reaction was allowed to develop for 30 and 15 minutes at a temperature of 37° C. On termination of the 15 and 30 minute periods, the reaction was blocked by adding 300 μL of ethanol at 95%.
50 μL of the solution containing the released fatty acids formed are used for the calorimetric dose, carried out using the special kit, that provides the necessary reagents to develop the reaction described below.
In the presence of the Acyl-CoA enzyme synthesis (AcylCS) and adenosin-5′-triphosphate (ATP) the released fatty acids are converted into acyl-CoA, adenosin-5′-monophosphate (AMP) and pyrophosphate. Acyl-CoA reacts with oxygen (O2) in the presence of Acyl coA oxidase (ACOD) forming 2,3-enoylcoenzymeA. The resulting H202 converts the 2,4,6-tribromo-3-hydroxy-benzoic acid (TBHB) and the 4-aminoantipyrine (4-AA) into a red stain in the presence of peroxidase (POD).
The samples are read at the 546 nm wave length, before and after the addition of ACOD and the reaction is conducted at room temperature.
Fatty acids+CoA+ATP→acyl-CoA+AMP+pyrophosphate
Acyl-CoA+O2→enoyl-coA+H202

[1] = TEC 0.5% in water, 15 min reaction
[2] = TEC 0.5% in water, 30 min reaction
[3] = TEC 1% in water, 15 min reaction
[4] = TEC 1% in water, 30 min reaction
[5] = TEC 5% in water, 15 min reaction
[6] = TEC 5% in water, 30 min reaction

`CCOC(=O)CC(O)(CC(=O)OCC)C(=O)OCC` [TEC, triethyl citrate] was tested, and the “fatty acids reduction compared to control (%)” value (“fatty acids reduction … (%)” for short) [1] was 18.04%, the “Absorbance Mean” value [1] was 0.584 and the “fatty acids reduction … (%)” value [2] was 11.10%. For the same molecule, the “Absorbance Mean” value [2] was 0.084, the “fatty acids reduction … (%)” value [3] was 17.12% and the “Absorbance Mean” value [3] was 0.5905. For the same molecule, the “fatty acids reduction … (%)” value [4] was 12.70%, the “Absorbance Mean” value [4] was 0.083 and the “fatty acids reduction … (%)” value [5] was 44.84%. For the same molecule, the “Absorbance Mean” value [5] was 0.393, the “fatty acids reduction … (%)” value [6] was 81.50% and the “Absorbance Mean” value [6] was 0.018. For the same molecule, the “protection of the triglycerides from the enzymatic hydrolysis exercised by the lipases” value (maximum percentage according to the method followed, from the absorbance values) was “up to 85%”.
